Experimental data taken from US12216122B2, “Compositions and methods relating to detection, inhibition, and imaging of indoleamine 2,3-dioxygenase 1 (IDO1)” (Regeneron Pharmaceuticals, Inc., priority 2019, dated 2025).
Like-named read-outs stand apart in the source and are kept apart here. Values belong to the compound of their own block, whether it stands above or below them. Numbered stars: 1 amine (or outer) side, 2 acyl side, 3 side chain; on linkers, the order of the positions; unused ones are H or OH. Bridge positions count the residues as written; N and C are the ends. Square brackets hold non-standard residues; d marks the D form. Triazole bridges read from a SMILES are 1,4-linked. Ends that are not written are not given here. Peptide text beside a SMILES is read from it. * marks the point of attachment. NH(CH2CH2O)5CH2CO = O=C(COCCOCCOCCOCCOCCN[*:1])[*:2]; X2 = O=C(CCCCCSc1nonc1/C(=N/O)Nc1ccc(F)c(Br)c1)*; X1 = O=C(CSc1nonc1/C(=N/O)Nc1ccc(F)c(Br)c1)*; Trp(1-Me) = Cn1cc(C[C@H](N)C(=O)O)c2ccccc21; PEG8 = NCCOCCOCCOCCOCCOCCOCCOCCOCCC(=O)O; Lys(N3) = [N-]=[N+]=NCCCC[C@H](N)C(=O)O; Phe(4-F) = N[C@@H](Cc1ccc(F)cc1)C(=O)O; PEG6 = NCCOCCOCCOCCOCCOCCOCCC(=O)O; Pra = C#CC[C@H](N)C(=O)O

Experiments:
[1] = target: T1, IDO1 in IFNγ stimulated HeLa cells (Homo sapiens, UniProt P14902); assay: IDO1 inhibition assay in HeLa cells stimulated with IFNγ; type: cell-based; conditions: for inhibition at 8 µM: HeLa
T1 construct: endogenous in cells; host or cells: HeLa cells stimulated with IFNγ
T1 sequence (P14902 whole entry): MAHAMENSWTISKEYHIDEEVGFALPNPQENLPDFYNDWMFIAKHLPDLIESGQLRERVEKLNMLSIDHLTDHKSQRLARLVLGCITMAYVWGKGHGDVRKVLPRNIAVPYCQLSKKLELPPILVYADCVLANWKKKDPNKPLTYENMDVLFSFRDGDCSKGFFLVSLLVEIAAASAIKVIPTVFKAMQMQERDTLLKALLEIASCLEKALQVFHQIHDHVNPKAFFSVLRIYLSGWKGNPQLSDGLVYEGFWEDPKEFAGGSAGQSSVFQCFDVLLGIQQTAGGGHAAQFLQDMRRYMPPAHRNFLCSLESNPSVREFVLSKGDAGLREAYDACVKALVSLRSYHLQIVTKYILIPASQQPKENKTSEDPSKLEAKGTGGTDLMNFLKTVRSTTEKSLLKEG
Method: Lead compounds prioritized in the recombinant IDO1 inhibition assay were advanced to a cellular IDO1 inhibition assay.
Protocol: HeLa cells were trypsinized and diluted to a density of 2×10^5 cells/mL in cell culture medium (DMEM+10% Fetal Bovine Serum (FBS)+1% Penicillin/Streptomycin). Sterile L-tryptophan was added to the cells at a final concentration of 300 μM. IFNγ at a final concentration of 100 ng/mL was added to HeLa cells to stimulate IDO1 expression. Unstimulated HeLa cells in the absence of IFNγ were used for background subtraction. HeLa cells with or without IFNγ were plated in 96-well Greiner black assay plates at a density of 22,000 cells/well. […] 8 μL of each compound dilution were then dispensed into the Greiner black 96-well assay plate(s) containing HeLa cells in triplicate, yielding final assay compound concentrations of 8 μM serially diluted to 1.27 nM. The plates were incubated at 37° C. with 5% CO2. After 48 hours, 24 μL of 0.5 M methyl isonipecotate in DMSO were added into each well and the plates were sealed and incubated at 37° C. with 5% CO2 overnight. The resulting fluorescence was measured in a BioTek Synergy H1 plate reader with a 400 nm excitation filter and a 510 nm emission filter. The fluorescence intensity of each well was corrected for the background observed in wells with non-IFNγ-treated cells and was expressed as a fraction of the intensity observed in wells of IFNγ-treated cells with vehicle only.

recombinant human IDO1 = target: T2, recombinant human IDO1 (Homo sapiens, UniProt P14902); assay: IDO1 Fluorogenic Inhibitor Screening Assay (enzyme inhibition); type: biochemical
T2 construct: purchased BPS Biosciences 72037
T2 sequence (P14902 whole entry): as above
Method: The IDO1 Fluorogenic Inhibitor Screening Assay Kit (72037, BPS Biosciences) was used to measure the enzyme inhibition of human IDO1 in the presence of macrocyclic peptide ligands. IDO1 catalyzes the conversion of the essential amino acid L-tryptophan (L-Trp) to N-formylkynurenine (NFK). In the assay, the test inhibitor and enzyme were added to a sample containing L-Trp substrate. After incubation for 1 h at room temperature, 20 μL Fluorescence Solution was added and incubated at 37° C. for 4 h to produce a fluorescent product. Activity was measured by reading sample fluorescence at λ=510 nm following excitation of the reaction product at λ=400 nm.

[2] = target: T3, His-tagged IDO1 human recombinant protein (Homo sapiens, UniProt P14902); assay: IDO1 ELISA (Affinity Assay): sandwich ELISA, biotinylated ligand immobilized on NEUTRAVIDIN plate; type: binding; conditions: binding analysis of VHL-linked Epitope 2 ligand; read-out: EC50
T3 construct: purchased BPS Biosciences 71182
T3 sequence (P14902 whole entry): as above
Method: Protocol: A black 96-well NEUTRAVIDIN® Coated High Binding Capacity plate (15510, Pierce) was coated with 2 μM biotinylated macrocyclic peptide ligand in TBS (25 mM Tris-HCl, 150 mM NaCl, pH 7.6) for 2 h at room temperature. The plate was aspirated and then washed with Wash Buffer (0.05% (v/v) TWEEN® 20 in PBS, 6×). His-tagged IDO1 human recombinant protein (71182, BPS Biosciences) was serially diluted in Wash Buffer (from 200 to 0 nM) and incubated in the designated microwells for 1 h at room temperature. Microwells were aspirated and subsequently washed with Wash Buffer (11×). To detect the bound IDO1 protein, Alkaline Phosphatase (AP)-conjugated Anti-6×HIS TAG® antibody [HIS-1] (ab49746, Abcam) was prepared at 1:10,000 dilution and added to the microwells for 1 h at room temperature. The plate was aspirated and washed with Wash Buffer (5×). ATTOPHOS® AP Fluorescent Substrate System (S1000, Promega) was employed to develop the microwells. Using an excitation wavelength of 430 nm, fluorescent emission at 535 nm was recorded by Beckman Coulter DTX880 photometer. Titration curves were fit using a four-parameter regression curve fitting program to determine EC50 values.
For these assays, a dilution series of His-tagged IDO1 human recombinant protein was captured using the macrocyclic peptide ligands immobilized on a NEUTRAVIDIN®-coated plate. […] The sequences of the peptide ligands are listed in Table 1, where D-amino acids are denoted in lowercase, Me-Trp=1-methyl-L-tryptophan, and F-Phe=4-fluoro-L-phenylalanine. Chemical structures are shown below Table 1.
The D-alanine substituted, biotin-PEG3-modified macrocycles were tested in the IDO1 ELISA (Affinity assay). For these assays, a dilution series of His-tagged IDO1 human recombinant protein was captured using macrocycles immobilized on a NEUTRAVIDIN®-coated plate.

HeLa cells = assay: Cellular internalization of fluorescent IDO1 ligands (flow cytometry); type: cell-based; conditions: Cy5 or FITC label, flow cytometry
Method: Internalization of fluorescently labeled peptides (using Cy5 or FITC) was measured by concentration dependent flow cytometry of unstimulated HeLa cells incubated for one hour with the peptide. […] Internalization was also testing using a cellular inhibition assay, which occurs over 48 hours (rather than the one hour for the flow cytometry assay). Internalized FITC-wyvay (SEQ ID NO:2) at 48 hours was compared to one hour in both unstimulated and stimulated HeLa cells (Table 13). Cell penetration of FITC-wyvay (SEQ ID NO:2) increases with time; more internalized FITC-wyvay (SEQ ID NO:2) can be detected at 48 hours compared to one hour. After one hour, no difference in intracellular staining of FITC-wyvay (SEQ ID NO:2) is observed in unstimulated versus stimulated cells. At 48 hours, there is a slight increase in intracellular FITC-wyvay (SEQ ID NO:2) in stimulated compared to unstimulated cells.
Protocol: HeLa cells were cultured to confluence (˜500,000 cells) in 6-well plates in cell culture medium (DMEM+10% Fetal Bovine Serum (FBS)+1% Penicillin/Streptomycin) or in cell culture medium containing 100 ng/mL IFNγ to stimulate IDO1 expression. The cells were treated with 2 μM or 8 μM macrocyclic IDO1 ligand labeled with either Cy5 or FITC for either 1 hour, 24 hours, or 48 hours as indicated. After treatment, the ligands were aspirated and the cells were washed twice with 1× Phosphate Buffered Saline (PBS). The cells were then harvested by treatment with 0.05% Trypsin-1×EDTA for 5 min at 37° C. Trypsin was quenched by the addition of PBS+2% FBS. The cells in suspension were washed twice in PBS+2% FBS, then resuspended in 500 μL PBS+2% FBS and analyzed for Cy5 or FITC fluorescence using a BD LSR Fortessa X-20 flow cytometer or/and ImageStream X Mark II imaging flow cytometer. Flow Cytometry Standard (fcs) data files were analyzed using FlowJo Software version 10.

[3] = read-out: % inhibition at 8 μM, HeLa, Table 17
[4] = Table 18, read-out: Inhibition Recombinant IDO1 IC50
[5] = Table 19, read-out: Inhibition Human rIDO1 IC50
[6] = Table 18, read-out: Inhibition HeLa IC50
[7] = Table 19, read-out: Inhibition HeLa cells IC50
[8] = PEG linker length series, wyry, read-out: IC50
[9] = Table 17, read-out: Inhibition Recombinant IDO1 IC50
[10] = N-methylated heterobiligands, PEG6 linker, read-out: IC50
[11] = PEG linker length series, wyvay, read-out: IC50
[12] = Table 15, read-out: Inhibition Recombinant IDO1 IC50

IC50 (recombinant human IDO1; [4]): 343 nM
IC50 (recombinant human IDO1; [5]): 343 nM
IC50 [1, 6]: 0.997 µM
IC50 [1, 7]: 0.997 µM
Compound: O=C(O)CCCCCSc1nonc1/C(=N/O)Nc1ccc(F)c(Br)c1 [Inh2]

IC50 (recombinant human IDO1; [8]): 338 nM
IC50 (recombinant human IDO1; [9]): 338 nM
inhibition at 8 µM [1, 3]: 47.8%
Inhibition HeLa IC50 nM ([1]; Table 17): no curve fit
Compound: N=C(N)NCCC[C@H]1NC(=O)[C@@H](Cc2ccc(O)cc2)NC(=O)[C@@H](Cc2c[nH]c3ccccc23)NC(=O)[C@@H](NC(=O)CCOCCOCCOCCOCCOCCOCCNC(=O)CSc2nonc2/C(=N/O)Nc2ccc(F)c(Br)c2)Cc2cn(nn2)CCCC[C@@H](C(N)=O)NC(=O)[C@@H](Cc2ccc(O)cc2)NC1=O [Inh-PEG6-wyry] ({X1-PEG6}-[Pra][dW][dY][dR][dY][Lys(N3)]-NH2; triazole 1-6)
IDO1 inhibition potency relative to the small molecule (Inh) alone, in words (recombinant human IDO1): more than three times as potent as Inh alone

IC50 (recombinant human IDO1; [10]): 44 nM
IC50 (recombinant human IDO1; [11]): 265 nM
IC50 (recombinant human IDO1; [12]): 44 nM
IC50 (recombinant human IDO1; [5]): 265 nM
inhibition at 8 µM ([1]; read-out: % inhibition at 8 μM, HeLa cells, Table 19): 36.1%
inhibition at 8 µM [1, 3]: 36.1%
IC50 ([1]; Table 17, cells print μM, read-out: Inhibition HeLa IC50): 35.7 µM
IC50 [1, 7]: 35.7 µM
Compound: CC(C)[C@H]1NC(=O)[C@@H](Cc2ccc(O)cc2)NC(=O)[C@@H](Cc2c[nH]c3ccccc23)NC(=O)[C@@H](NC(=O)CCOCCOCCOCCOCCOCCOCCNC(=O)CSc2nonc2/C(=N/O)Nc2ccc(F)c(Br)c2)Cc2cn(nn2)CCCC[C@@H](C(N)=O)NC(=O)[C@@H](Cc2ccc(O)cc2)NC(=O)[C@@H](C)NC1=O [Inh-PEG6-wyvay] ({X1-PEG6}-[Pra][dW][dY][dV][dA][dY][Lys(N3)]-NH2; triazole 1-7)

EC50 [2]: > 1000 nM
IC50 (recombinant human IDO1; [10]): 928 nM
IC50 (recombinant human IDO1; [8]): 1090 nM
IC50 (recombinant human IDO1; [11]): 1050 nM
IC50 (recombinant human IDO1; [12]): 928 nM
IC50 (recombinant human IDO1; [9]): 1090 nM
IC50 (recombinant human IDO1; [4]): 1090 nM
IC50 (recombinant human IDO1; [5]): 1050 nM
IC50 (recombinant human IDO1; effect of linker and of protection of the inhibitor, read-out: IC50): 616 nM
IC50 (recombinant human IDO1; linker composition series, read-out: IC50): 693 nM
inhibition at 8 µM [1, 3]: 99.6%
IC50 ([1]; Table 15, read-out: Inhibition HeLa cells IC50): 0.125 µM
IC50 ([1]; Table 17, read-out: Inhibition HeLa IC50): 0.244 µM
IC50 [1, 6]: 0.406 µM
IC50 [1, 7]: 0.406 µM
Compound: O=C(O)CSc1nonc1/C(=N/O)Nc1ccc(F)c(Br)c1 [Inh]

Cellular IDO1 inhibition, in words [1]: good inhibition/cell penetration
Compound: d-Hex-Inh-PEG5-wyvay: heterobiligand with linker modified to increase lipophilicity, PEG5 ([dW][dY][dV][dA][dY]; also: d-Hex-inhibitor via PEG5 linker)

The remaining lines, values behind:

Compound: CC(C)[C@H]1NC(=O)[C@@H](Cc2ccc(O)cc2)NC(=O)[C@@H](Cc2c[nH]c3ccccc23)NC(=O)[C@@H](NC(=O)CCOCCOCCOCCOCCOCCOCCOCCOCCNC(=O)CSc2nonc2/C(=N/O)Nc2ccc(F)c(Br)c2)Cc2cn(nn2)CCCC[C@@H](C(N)=O)NC(=O)[C@@H](Cc2ccc(O)cc2)NC(=O)[C@@H](C)NC1=O [Deprotected-Inh-PEG8-wyvay] ({X1-PEG8}-[Pra][dW][dY][dV][dA][dY][Lys(N3)]-NH2; triazole 1-7)
inhibition at 8 µM [1, 3]: 77.3%

Compound: CC(C)[C@H]1NC(=O)[C@@H](Cc2ccc(O)cc2)NC(=O)[C@@H](Cc2c[nH]c3ccccc23)NC(=O)[C@@H](NC(=O)COCCOCCOCCOCCOCCNC(=O)CCCCCSc2nonc2/C(=N/O)Nc2ccc(F)c(Br)c2)Cc2cn(nn2)CCCC[C@@H](C(N)=O)NC(=O)[C@@H](Cc2ccc(O)cc2)NC(=O)[C@@H](C)NC1=O [Inh2-PEG5-wyvay] (X2-[NH(CH2CH2O)5CH2CO][Pra][dW][dY][dV][dA][dY][Lys(N3)]-NH2; triazole 2-8)
IC50 (recombinant human IDO1; [4]): 539 nM
IC50 (recombinant human IDO1; [5]): 539 nM
IC50 [1, 6]: 0.221 µM
IC50 [1, 7]: 0.221 µM

Compound: Cy5-nlf(Me-Trp)(F-Phe): Cy5 labeled Epitope 2 macrocycle nlf(Me-Trp)(F-Phe) ([dN][dL][dF][Trp(1-Me)][Phe(4-F)]; triazole (positions not given here); not fully specified (N-terminus, C-terminus, bridges); printed as Cy5-nlf(Me-Trp)(F-Phe); also: Cy5 label, macrocycle, closure not given here)
Internalization of fluorescently labeled peptide, in words (HeLa cells): detected by flow cytometry and imaging

Compound: FITC-nlf(Me-Trp)(F-Phe): FITC labeled Epitope 2 macrocycle nlf(Me-Trp)(F-Phe) ([dN][dL][dF][Trp(1-Me)][Phe(4-F)]; triazole (positions not given here); also: FITC label, site not given here, macrocycle by click between N-terminal Pra and C-terminal Az4, not in chain)
Internalization of fluorescently labeled peptide, in words (HeLa cells): reduced but detectable and concentration dependent

Compound: d-Hex-Inh-PEG4-wyvay: heterobiligand with linker modified to increase lipophilicity, PEG4 ([dW][dY][dV][dA][dY]; also: d-Hex-inhibitor via PEG4 linker)
Cellular IDO1 inhibition, in words [1]: only showed inhibition at higher concentrations

Compound: d-Hex-Inh-PEG6-wyvay: heterobiligand with linker modified to increase lipophilicity, PEG6 ([dW][dY][dV][dA][dY]; also: d-Hex-inhibitor via PEG6 linker)
Cellular IDO1 inhibition, in words [1]: only showed inhibition at higher concentrations
